Data as given in patent publication US4510139A, “Substituted aminobenzamides and their use as agents which inhibit lipoxygenase activity” (Sterling Drug Inc., priority 1984, dated 1985).
Like-named read-outs stand apart in the source and are kept apart here.

What was measured:
cyclooxygenase = target: T1, cyclooxygenase (Rattus norvegicus, UniProt Q63921); assay: Inhibition of cyclooxygenase derived from rat basophilic leukemia (RBL-1) cells, product C1 (PGD2); type: biochemical; details: for inhibition at 1 µM: dose of 1 μM, read-out: % Inhibition of cyclooxygenase (C1) formation
T1 construct: microsomal fraction containing lipoxygenase and cyclooxygenase; endogenous in cells; host or cells: RBL-1 (rat basophilic leukemia) cells, homogenate / microsomal fraction
T1 sequence (Q63921 27-602): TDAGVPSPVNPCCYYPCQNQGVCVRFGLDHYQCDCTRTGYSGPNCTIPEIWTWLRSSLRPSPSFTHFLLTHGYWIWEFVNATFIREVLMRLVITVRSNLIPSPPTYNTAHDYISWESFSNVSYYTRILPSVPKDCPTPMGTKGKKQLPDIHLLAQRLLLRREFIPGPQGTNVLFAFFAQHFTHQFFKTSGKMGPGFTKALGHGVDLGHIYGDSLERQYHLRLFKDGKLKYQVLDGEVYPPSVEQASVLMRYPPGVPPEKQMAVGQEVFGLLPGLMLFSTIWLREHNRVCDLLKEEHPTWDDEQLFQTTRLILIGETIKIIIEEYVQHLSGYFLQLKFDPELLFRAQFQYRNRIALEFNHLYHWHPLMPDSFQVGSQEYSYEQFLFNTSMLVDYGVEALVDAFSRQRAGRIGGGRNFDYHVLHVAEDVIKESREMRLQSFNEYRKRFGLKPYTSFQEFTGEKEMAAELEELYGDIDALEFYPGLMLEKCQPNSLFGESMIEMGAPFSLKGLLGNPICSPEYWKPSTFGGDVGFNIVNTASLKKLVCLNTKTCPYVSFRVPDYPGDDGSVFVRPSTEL
Protocol: (§1) The primary screening test used is a determination of the inhibition of lipoxygenase and cyclooxygenase derived from rat basophilic leukemia (RBL-1) cells. The test was carried out according to the following procedure:
(§2) Single cell suspensions of RBL-1 cells are homogenized to obtain the microsomal fraction containing lipoxygenase and cyclooxygenase. Test compounds are added to the enzyme-containing homogenate for a 5 min preincubation period at 37° C. prior to the addition of ^14 C-arachidonic acid substrate. Following incubation at 37° C. for 15 min, the reaction is stopped by the addition of 2M formic acid and the enzyme-substrate products are extracted into chloroform. An aliquot of the extract is evaporated to dryness, reconstituted in ether to 1/10 original volume, spotted in thin layer chromatography plates and chromatographed. The peak areas of radioactivity representing the products are located by scanning the plates. The quantity of products formed is estimated by measuring the height of the radioactivity peaks observed on the chromatographic scans. Alternatively, the areas of radioactivity are scraped from the plate and the ^14 C quantitated by scintillation counting.

lipoxygenase = target: T2, lipoxygenase (Rattus norvegicus, UniProt P12527); assay: Inhibition of lipoxygenase derived from rat basophilic leukemia (RBL-1) cells, products L1 (5,12-di-HETE) and L2 (5-HETE); type: biochemical
T2 construct: microsomal fraction containing lipoxygenase and cyclooxygenase; endogenous in cells; host or cells: RBL-1 (rat basophilic leukemia) cells, homogenate / microsomal fraction
T2 sequence (P12527 1-673): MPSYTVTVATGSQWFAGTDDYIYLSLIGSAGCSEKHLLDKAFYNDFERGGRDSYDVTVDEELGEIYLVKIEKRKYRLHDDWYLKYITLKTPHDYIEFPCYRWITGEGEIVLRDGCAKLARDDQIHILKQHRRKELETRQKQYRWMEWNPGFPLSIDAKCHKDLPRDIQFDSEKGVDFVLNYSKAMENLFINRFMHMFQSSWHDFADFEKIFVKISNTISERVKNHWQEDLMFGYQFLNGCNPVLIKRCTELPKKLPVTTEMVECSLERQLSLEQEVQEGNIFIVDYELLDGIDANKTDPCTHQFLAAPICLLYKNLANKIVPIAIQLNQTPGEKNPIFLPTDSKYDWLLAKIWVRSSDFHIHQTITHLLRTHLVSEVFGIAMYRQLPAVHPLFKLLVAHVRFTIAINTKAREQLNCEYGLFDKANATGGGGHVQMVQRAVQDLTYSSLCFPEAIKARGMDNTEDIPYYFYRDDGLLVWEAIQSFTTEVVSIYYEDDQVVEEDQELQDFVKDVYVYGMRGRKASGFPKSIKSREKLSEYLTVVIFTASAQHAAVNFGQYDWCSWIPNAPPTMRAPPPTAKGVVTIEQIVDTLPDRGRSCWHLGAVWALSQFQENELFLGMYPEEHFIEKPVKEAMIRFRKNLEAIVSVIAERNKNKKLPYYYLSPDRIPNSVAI
Protocol: as §1, §2

[1] = test system: SRS-A component of immunologically induced broncho-constriction; assay: Effect on the SRS-A component of immunologically induced broncho-constriction in guinea pigs; type: in vivo; details: guinea pig, intravenous, highest soluble dose (0.1 mg/kg)
Protocol: The test was carried out according to the following procedure:
Two weeks after immunization with egg albumin, guinea pigs are prepared for bronchoconstriction determination. One hour prior to antigen challenge, each animal is dosed orally with indomethacin and chlorpheniramine. Animals are anesthetized with sodium pentobarbital, the trachea cannulated and the animal artifically respired. Arachidonic acid is administered intravenously prior to antigen challenge. The resulting bronchoconstriction is recorded by the standard lung overflow procedure and the peak increase in intratracheal pressure (mm Hg) over a 10 minute observation period is recorded. Compounds are evaluated for their ability to prevent the increased intratracheal pressure in an experimental group of animals as compared to the medicated (indomethacin+chlorpheniramine+arachidonic acid) control group. The results are expressed in terms of percent inhibition or as ED50 values (effective dose in 50% of the animals).

[2] = read-out: % Inhibition of lipoxygenase (L1) formation
[3] = read-out: % Inhibition of lipoxygenase (L2) formation
[4] = dose of 1 μM, L1 = 5,12-di-HETE, read-out: % Inhibition of lipoxygenase (L1) formation
[5] = dose of 1 μM, L2 = 5-HETE, read-out: % Inhibition of lipoxygenase (L2) formation

Structure (SMILES): O=C(c1ccccc1Nc1ccc(O)cc1)N1CCCCC1 [Example 1(d), 1-[2-(4-Hydroxyphenylamino)benzoyl]piperidine]
- IC50 (cyclooxygenase): > 100000 nM
- inhibition at 1 µM (cyclooxygenase): 0%
- IC50 (lipoxygenase; IC50 L1, L1 = 5,12-di-HETE): 3500 nM
- IC50 (lipoxygenase; IC50 L2, L2 = 5-HETE): 600 nM
- inhibition at 1 µM (lipoxygenase; [2]): 19%
- inhibition at 1 µM (lipoxygenase; [3]): 64%
- percent inhibition of increased intratracheal pressure (bronchoconstriction) [1]: 48%

Structure (SMILES): O=C1C=CC(=Nc2ccccc2C(=O)N2CCCCC2)C=C1 [Example 2, 1-{2-[(4-Oxo-2,5-cyclohexadien-1-ylidene)amino]benzoyl}piperidine]
- IC50 (cyclooxygenase): > 1000 nM
- inhibition at 1 µM (cyclooxygenase): 0%
- IC50 (lipoxygenase; IC50 L1, L1 = 5,12-di-HETE): 450 nM
- IC50 (lipoxygenase; IC50 L2, L2 = 5-HETE): 130 nM
- inhibition at 1 µM (lipoxygenase; [2]): 68%
- inhibition at 1 µM (lipoxygenase; [3]): 82%

Structure (SMILES): NC(=O)c1ccccc1Nc1ccc(O)cc1 [Example 3(b), 2-(4-Hydroxyphenylamino)benzamide]
- IC50 (cyclooxygenase): > 1000 nM
- inhibition at 1 µM (cyclooxygenase): 14%
- IC50 (lipoxygenase; IC50 L1, L1 = 5,12-di-HETE): 310 nM
- IC50 (lipoxygenase; IC50 L2, L2 = 5-HETE): 150 nM
- inhibition at 1 µM (lipoxygenase; [2]): 78%
- inhibition at 1 µM (lipoxygenase; [3]): 83%

Structure (SMILES): O=C(c1ccccc1Nc1ccc(O)cc1)N1CCCC1 [Example 4(b), 1-[2-(4-Hydroxyphenylamino)benzoyl]pyrrolidine]
- inhibition at 1 µM (cyclooxygenase): 0%
- inhibition at 1 µM (lipoxygenase; [4]): 41%
- inhibition at 1 µM (lipoxygenase; [5]): 52%

Structure (SMILES): CCCNC(=O)c1ccccc1Nc1ccc(O)cc1 [Example 5(b), 2-(4-Hydroxyphenylamino)-N-propylbenzamide]
- IC50 (cyclooxygenase): > 1000 nM
- inhibition at 1 µM (cyclooxygenase): 6%
- IC50 (lipoxygenase; IC50 L1, L1 = 5,12-di-HETE): 130 nM
- IC50 (lipoxygenase; IC50 L2, L2 = 5-HETE): 110 nM
- inhibition at 1 µM (lipoxygenase; [2]): 62%
- inhibition at 1 µM (lipoxygenase; [3]): 85%

Structure (SMILES): CC1CCN(C(=O)c2ccccc2Nc2ccc(O)cc2)CC1 [Example 6(b), 1-[2-(4-Hydroxyphenylamino)benzoyl]-4-methylpiperidine]
- inhibition at 1 µM (cyclooxygenase): 7%
- inhibition at 1 µM (lipoxygenase; [4]): 54%
- inhibition at 1 µM (lipoxygenase; [5]): 77%

Structure (SMILES): CNC(=O)c1ccccc1Nc1ccc(O)cc1 [Example 7(b), 2-(4-Hydroxyphenylamino)-N-methylbenzamide]
- inhibition at 1 µM (cyclooxygenase): 2%
- inhibition at 1 µM (lipoxygenase; [4]): 23%
- inhibition at 1 µM (lipoxygenase; [5]): 48%

Structure (SMILES): CCN(CC)C(=O)c1ccccc1Nc1ccc(O)cc1 [Example 8(b), N,N-Diethyl-2-(4-hydroxyphenylamino)benzamide]
- inhibition at 1 µM (cyclooxygenase): 0%
- inhibition at 1 µM (lipoxygenase; [4]): 33%
- inhibition at 1 µM (lipoxygenase; [5]): 63%

Structure (SMILES): CC(C)NC(=O)c1ccccc1Nc1ccc(O)cc1 [Example 9(b), 2-(4-Hydroxyphenylamino)-N-isopropylbenzamide]
- inhibition at 1 µM (cyclooxygenase): 0%
- inhibition at 1 µM (lipoxygenase; [4]): 72%
- inhibition at 1 µM (lipoxygenase; [5]): 78%

Structure (SMILES): CN(C)C(=O)c1ccccc1Nc1ccc(O)cc1 [Example 10(b), 2-(4-Hydroxyphenylamino)-N,N-dimethylbenzamide]
- inhibition at 1 µM (cyclooxygenase): 1%
- inhibition at 1 µM (lipoxygenase; [4]): 34%
- inhibition at 1 µM (lipoxygenase; [5]): 56%

Structure (SMILES): O=C(NC1CCCCC1)c1ccccc1Nc1ccc(O)cc1 [Example 12(b), N-Cyclohexyl-2-(4-hydroxyphenylamino)benzamide]
- IC50 (cyclooxygenase): > 1000 nM
- inhibition at 1 µM (cyclooxygenase): 0%
- IC50 (lipoxygenase; IC50 L1, L1 = 5,12-di-HETE): 120 nM
- IC50 (lipoxygenase; IC50 L2, L2 = 5-HETE): 110 nM
- inhibition at 1 µM (lipoxygenase; [2]): 80%
- inhibition at 1 µM (lipoxygenase; [3]): 94%
